Earlier results in patent US8440723B2, “Metformin salts of salicylic acid and its congeners” (priority 2011, dated 2013).
In brackets after ≈: the same amount, converted by molar mass.

Assays:
[1] = The Merck Index, Eleventh Edition
[2] = test system: patients with type 2 diabetes

Row | volume of water in which 1 g is soluble ([1]; 1 g of substance) | water solubility [1] | solubility in water (in words) [1] | Compound | effect on blood glucose, HbA1c, triglycerides, free fatty acid and C-reactive protein [2]
1 | 460 mL | 2170 µg/mL (≈ 15.7 mM) | – | O=C(O)c1ccccc1O [salicylic acid] | –
2 | – | – | practically insoluble in water | O=C(Oc1ccccc1C(=O)O)c1ccccc1O [salsalate, 2-(2-hydroxybenzoyl)oxybenzoic acid] | lowers blood glucose, HbA1c levels, triglycerides, free fatty acid and C-reactive protein
